Assay results: PubChem BioAssay (NCI)
Values joined by “and” are separate entries in the source; they are usually repeats but may differ in a detail not shown here. Identical values can stand only once.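 Results reflect a 48-hour exposure of cells in 96-well plates to compound at five concentrations. GI50 is the concentration that inhibits growth by half. TGI: concentration producing complete growth inhibition.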

How the values were obtained:
Test in all cases: NCI anticancer screen, dose series, 48 h
CCRF-CEM leukemia = system: CCRF-CEM leukemia
HCC-2998 colon = system: HCC-2998 colon
HL-60(TB) leukemia = system: HL-60(TB) leukemia
HS 578T breast = system: HS 578T breast
MALME-3M melanoma = system: MALME-3M melanoma
MCF7 breast = system: MCF7 breast
MDA-N = system: MDA-N
OVCAR-4 ovarian = system: OVCAR-4 ovarian
OVCAR-8 ovarian = system: OVCAR-8 ovarian
SW-620 colon = system: SW-620 colon

Cn1c2c(c3ccccc31)CCN1C(=O)C3SC21C1C(=O)N(c2ccccc2)C(=O)C31 (stereo not drawn)
GI50 (CCRF-CEM leukemia): 53.4 µM | TGI (CCRF-CEM leukemia): > 100 µM | GI50 (HCC-2998 colon): > 100 µM | TGI (HCC-2998 colon): > 100 µM | TGI (HL-60(TB) leukemia): > 77.3 µM | TGI (HS 578T breast): > 100 µM | TGI (MALME-3M melanoma): > 100 µM | TGI (MCF7 breast): > 100 µM | TGI (MDA-N): > 100 µM | TGI (OVCAR-4 ovarian): > 100 µM | TGI (OVCAR-8 ovarian): > 100 µM | TGI (SW-620 colon): > 100 µM

N#CC1(c2ccccc2)CCN(C2(c3ccccc3)CCCCC2)CC1
TGI (CCRF-CEM leukemia): > 100 µM | TGI (HCC-2998 colon): > 100 µM | TGI (HL-60(TB) leukemia): > 100 µM | TGI (HS 578T breast): > 100 µM | TGI (MALME-3M melanoma): > 100 µM | TGI (MCF7 breast): > 100 µM | TGI (MDA-N): > 100 µM | TGI (OVCAR-4 ovarian): > 100 µM | TGI (OVCAR-8 ovarian): > 100 µM | TGI (SW-620 colon): > 100 µM

[N-]=[N+]=NC[C@H]1OCO[C@H](CN=[N+]=[N-])[C@H]2OCCOCCOc3ccccc3OCCOCCO[C@@H]21
TGI (CCRF-CEM leukemia): > 100 µM | TGI (HCC-2998 colon): > 100 µM | TGI (HL-60(TB) leukemia): > 100 µM | TGI (HS 578T breast): > 100 µM | TGI (MALME-3M melanoma): > 100 µM | TGI (MCF7 breast): > 100 µM | TGI (MDA-N): > 100 µM | TGI (OVCAR-4 ovarian): > 100 µM | TGI (OVCAR-8 ovarian): > 100 µM | TGI (SW-620 colon): > 100 µM

C=CC(C)(C)c1cc([C@@H]2COc3cc(O)ccc3C2=O)c(O)c(O)c1OC
TGI (CCRF-CEM leukemia): > 100 µM | TGI (HCC-2998 colon): > 100 µM | TGI (HL-60(TB) leukemia): 73.3 µM | TGI (HS 578T breast): > 100 µM | TGI (MALME-3M melanoma): 93.6 µM | TGI (MCF7 breast): 32.5 µM | TGI (MDA-N): 51 µM | TGI (OVCAR-4 ovarian): 34.2 µM | TGI (OVCAR-8 ovarian): 30.9 µM | TGI (SW-620 colon): > 100 µM

ONC1=Nc2ccccc2OCc2cc(Br)c(Br)cc2COc2ccccc2N=C1NO
TGI (CCRF-CEM leukemia): > 34.1 µM | TGI (HCC-2998 colon): 31.8 µM | TGI (HL-60(TB) leukemia): 25 µM | TGI (HS 578T breast): > 69.8 µM | TGI (MALME-3M melanoma): 42.1 µM | TGI (MCF7 breast): > 44.7 µM | TGI (MDA-N): 34.1 µM | TGI (OVCAR-4 ovarian): > 52.6 µM | TGI (OVCAR-8 ovarian): > 47.5 µM | TGI (SW-620 colon): > 48.3 µM

Cc1cc(S(=O)(=O)Nc2nc3ccccc3n2-c2ccccc2)c(S)cc1Cl
TGI (CCRF-CEM leukemia): > 100 µM | TGI (HCC-2998 colon): > 100 µM | TGI (HL-60(TB) leukemia): > 100 µM | TGI (HS 578T breast): > 100 µM | TGI (MALME-3M melanoma): > 100 µM | TGI (MCF7 breast): > 100 µM | TGI (MDA-N): > 100 µM | TGI (OVCAR-4 ovarian): > 100 µM | TGI (OVCAR-8 ovarian): > 100 µM | TGI (SW-620 colon): > 100 µM

COc1ccc2c(c1)CC1Cc3ccccc3CCN1C2 (stereo not drawn)
TGI (CCRF-CEM leukemia): > 100 µM | TGI (HCC-2998 colon): > 100 µM | TGI (HL-60(TB) leukemia): > 100 µM | TGI (HS 578T breast): > 100 µM | TGI (MALME-3M melanoma): > 100 µM | TGI (MCF7 breast): > 100 µM | TGI (MDA-N): > 100 µM | TGI (OVCAR-4 ovarian): > 100 µM | TGI (OVCAR-8 ovarian): > 100 µM | TGI (SW-620 colon): > 100 µM

Cc1ccc(OCC2OC(n3cnc4c(Cl)ncnc43)CC2Oc2ccc(C)cc2)cc1 (stereo not drawn)
TGI (CCRF-CEM leukemia): > 40 µM | GI50 (HCC-2998 colon): 5.44 µM and 16.8 µM | TGI (HCC-2998 colon): 12.8 µM and 37 µM | GI50 (HL-60(TB) leukemia): 2.79 µM | TGI (HL-60(TB) leukemia): 7.17 µM | TGI (HS 578T breast): > 59.2 µM and 27.5 µM | GI50 (MALME-3M melanoma): 20.2 µM and 2.68 µM | TGI (MALME-3M melanoma): 55.8 µM and 8.66 µM | GI50 (MCF7 breast): 4.44 µM and 21 µM | TGI (MCF7 breast): 12.6 µM and > 58.8 µM | GI50 (MDA-N): 4.63 µM and 16.6 µM | TGI (MDA-N): 11.2 µM and 35.7 µM | GI50 (OVCAR-4 ovarian): 2.57 µM and 10.6 µM | TGI (OVCAR-4 ovarian): 13.1 µM and > 56.6 µM | TGI (OVCAR-8 ovarian): 24.6 µM and 24.2 µM | TGI (SW-620 colon): > 55.4 µM

CCOC(=O)c1c(NCc2ccccc2)n(-c2ccccc2)c(=S)n(-c2ccccc2)c1=O
TGI (CCRF-CEM leukemia): > 100 µM | TGI (HCC-2998 colon): > 100 µM | TGI (HL-60(TB) leukemia): > 100 µM | TGI (HS 578T breast): 94.4 µM | TGI (MALME-3M melanoma): > 100 µM | TGI (MCF7 breast): > 100 µM | TGI (MDA-N): > 100 µM | TGI (OVCAR-4 ovarian): > 100 µM | TGI (OVCAR-8 ovarian): > 100 µM | TGI (SW-620 colon): > 100 µM

COC(=O)/C=C/c1cc(OC)c2oc(-c3ccc(OC)c(OC)c3)c(C(=O)OC)c2c1
TGI (CCRF-CEM leukemia): > 100 µM | TGI (HCC-2998 colon): > 100 µM | TGI (HL-60(TB) leukemia): > 100 µM | TGI (HS 578T breast): > 100 µM | TGI (MALME-3M melanoma): > 100 µM | TGI (MCF7 breast): > 100 µM | TGI (MDA-N): > 100 µM | TGI (OVCAR-4 ovarian): > 100 µM | TGI (OVCAR-8 ovarian): > 100 µM | TGI (SW-620 colon): > 100 µM

CC(C)(C)OC(=O)NCC(=O)NC1C/C(=N\O)c2sccc21 (stereo not drawn)
TGI (CCRF-CEM leukemia): > 100 µM | TGI (HCC-2998 colon): > 100 µM | TGI (HL-60(TB) leukemia): > 100 µM | TGI (HS 578T breast): > 100 µM | TGI (MALME-3M melanoma): > 100 µM | TGI (MCF7 breast): > 100 µM | TGI (MDA-N): > 100 µM | TGI (OVCAR-4 ovarian): > 100 µM | TGI (OVCAR-8 ovarian): > 100 µM | TGI (SW-620 colon): > 100 µM
